The source of these data is article PMC12881681 (Molecular Pharmacology, 2025).

The target in data set [1] is T1, human liver cytosolic AOX1 (Homo sapiens, UniProt Q06278).
T1 sequence (Q06278 1-1338): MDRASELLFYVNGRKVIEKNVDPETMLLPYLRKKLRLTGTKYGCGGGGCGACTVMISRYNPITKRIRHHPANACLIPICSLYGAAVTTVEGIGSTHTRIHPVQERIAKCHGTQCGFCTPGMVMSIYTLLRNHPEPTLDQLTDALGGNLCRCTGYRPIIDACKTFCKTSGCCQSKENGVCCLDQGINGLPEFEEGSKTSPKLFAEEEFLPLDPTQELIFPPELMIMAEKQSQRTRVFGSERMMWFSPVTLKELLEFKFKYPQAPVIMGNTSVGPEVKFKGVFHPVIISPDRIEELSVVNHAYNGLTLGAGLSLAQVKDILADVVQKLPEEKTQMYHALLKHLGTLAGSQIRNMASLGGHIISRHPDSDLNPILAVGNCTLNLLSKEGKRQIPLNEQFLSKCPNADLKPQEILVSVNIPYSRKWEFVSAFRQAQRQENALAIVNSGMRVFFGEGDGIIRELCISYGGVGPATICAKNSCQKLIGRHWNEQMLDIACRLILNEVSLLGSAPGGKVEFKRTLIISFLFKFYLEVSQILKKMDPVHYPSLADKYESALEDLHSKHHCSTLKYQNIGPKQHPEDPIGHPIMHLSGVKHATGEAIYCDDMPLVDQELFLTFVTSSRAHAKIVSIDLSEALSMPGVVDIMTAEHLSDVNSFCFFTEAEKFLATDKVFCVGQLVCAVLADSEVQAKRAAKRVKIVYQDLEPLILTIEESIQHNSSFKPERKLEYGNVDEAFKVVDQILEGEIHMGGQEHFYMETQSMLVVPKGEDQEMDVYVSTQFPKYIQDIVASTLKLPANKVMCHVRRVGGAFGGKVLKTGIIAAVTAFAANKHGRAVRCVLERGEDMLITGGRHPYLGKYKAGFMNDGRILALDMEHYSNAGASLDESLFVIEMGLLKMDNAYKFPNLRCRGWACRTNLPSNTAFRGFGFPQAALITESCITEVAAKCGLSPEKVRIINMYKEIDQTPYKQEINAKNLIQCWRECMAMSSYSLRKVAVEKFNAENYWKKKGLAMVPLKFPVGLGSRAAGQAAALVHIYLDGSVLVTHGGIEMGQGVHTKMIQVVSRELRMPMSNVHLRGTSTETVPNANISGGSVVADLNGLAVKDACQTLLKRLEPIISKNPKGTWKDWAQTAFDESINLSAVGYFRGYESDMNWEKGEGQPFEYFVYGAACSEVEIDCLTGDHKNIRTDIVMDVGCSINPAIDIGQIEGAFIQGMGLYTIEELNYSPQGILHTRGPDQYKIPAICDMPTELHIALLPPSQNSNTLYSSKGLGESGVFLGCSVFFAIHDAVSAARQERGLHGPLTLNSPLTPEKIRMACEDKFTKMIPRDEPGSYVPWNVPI
Briefly: Effects of a competing AOX1 substrate and a competitive AOX1 inhibitor on AOX1 inactivation. The data set is classed as biochemical. Particulars: human liver cytosol; for effect of O^6-benzylguanine on extent of AOX1 inactivation: O^6-benzylguanine 120, 240 (480) μM; for effect of O^6-benzylguanine on extent of AOX1 inactivation / effect of gefitinib on extent of AOX1 inactivation: carbazeran 4-oxidation; for effect of gefitinib on extent of AOX1 inactivation: gefitinib 3, 10, 30 μM. On the set-up: Enzymatic reaction was initiated by adding human liver cytosol (100 μg); tissue Corning, Inc. (Gentest brand) 452115; host or cells: human liver cytosol, pool of 150 donors. On the procedure:
The molar ratio of O^6-benzylguanine (120, 240, and 480 μM) to 3-vinylerlotinib (10 μM) was 12, 24, and 48, O^6-benzylguanine to 4′-methylerlotinib (3 μM) was 40, 80, and 160, and O^6-benzylguanine to 2-methylerlotinib (1 μM) was 120, 240, and 480, respectively. […] Each standard incubation mixture was subjected to the same procedures as described in Enzyme Inactivation Experiments. The residual AOX1 enzyme activity was determined by the carbazeran 4-oxidation or O^6-benzylguanine 8-oxidation assay.

Data set [2] is described as follows: Rapid equilibrium dialysis, nonspecific binding to human liver cytosol. As to the method:
Nonspecific binding of test chemicals to human liver cytosol (100 μg) was determined using a Rapid Equilibrium Dialysis Kit (Thermo Fisher Scientific), as described in detail in our previous publication.[27]
MOLPHA- D-25- 00208 Supplemental Materials. Kweh et al. Mol Pharmacol […]
inhibition constants (Ki,u ) for the inhibition of human liver cytosolic carbazeran 4-oxidation A mixture containing a test chemical (10 µM; dissolved in a final concentration of 0.5% v/v DMSO) and human liver cytosol (100 µg total cytosolic protein) were dialyzed as described under Materials and Methods. Chemical concentr ation in each chamber wa s quantified by UPLC-MS/MS. Data are exp ressed as mean ± S.D. of three independent experiments. […]
a, K I,u = f u × K I, where fu was calcul ated from 10 µ M of chemicals in human liver cytosol.

The mark [3] stands for this setting: 10 μM, human liver cytosol 100 μg protein, 4-hour dialysis.

The structures appear in SMILES notation.

Turning to `C#Cc1cccc(Nc2ncnc3cc(OCCOC)c(OCCO)cc23)c1` [O-Desmethylerlotinib, O-desmethylerlotinib], in data set [1], the “effect of O^6-benzylguanine on extent of AOX1 inactivation” value (“effect of O^6-benzylguanine” for short) was “attenuated” and the “effect of gefitinib on extent of AOX1 inactivation” value (from here on “effect of gefitinib”) was “attenuated”. In data set [2] (setting [3]), the “Fraction Unbound (fu)” value is 0.84.
For `C#Cc1cccc(Nc2nc(C)nc3cc(OCCOC)c(OCCOC)cc23)c1` [2-Methylerlotinib, 2-methylerlotinib], in data set [1], the “effect of O^6-benzylguanine” value is recorded as “attenuated” and the “effect of gefitinib” value is on record as “attenuated”. For the same molecule, in data set [2] (human, cytosol), the “Fraction Unbound (fu)” value is reported as 0.51 ± 0.07.
As to `C#Cc1cc(Nc2ncnc3cc(OCCOC)c(OCCOC)cc23)ccc1C` [4′-Methylerlotinib, 4′-methylerlotinib], in data set [1], the “effect of O^6-benzylguanine” value is listed as “attenuated” and the “effect of gefitinib” value was “attenuated”. Also, the “Fraction Unbound (fu)” value in data set [2] (human, cytosol) is listed as 0.73 ± 0.05.
Consider `C#Cc1cccc(Nc2ncnc3cc(OCCO)c(OCCO)cc23)c1` [O-Didesmethylerlotinib, O-didesmethylerlotinib], for which, in data set [1], the “effect of O^6-benzylguanine” value is on record as “attenuated” and the “effect of gefitinib” value was “attenuated”. For the same molecule, the “Fraction Unbound (fu)” value in data set [2] (setting [3]) worked out at 0.84.
For `C=Cc1cccc(Nc2ncnc3cc(OCCOC)c(OCCOC)cc23)c1` [3-Vinylerlotinib, 3-vinylerlotinib], in data set [1], the “effect of O^6-benzylguanine” value is recorded as “attenuated” and the “effect of gefitinib” value is given as “attenuated”. In addition, in data set [2] (human, cytosol), the “Fraction Unbound (fu)” value is on record as 0.78 ± 0.04.
As usually defined, the fraction unbound is the share of the substance not bound to proteins or other matrix. The low end stands for little free substance, the high end for much free substance. Regarding `C#Cc1cccc(Nc2ncnc3cc(OCCOC)c(OCCOC)cc23)c1` [Erlotinib], in data set [1], the “effect of O^6-benzylguanine” value was “attenuated”. Moreover, the “decrease in carbazeran 4-oxidation in the presence of gefitinib” value in data set [1] (inactivator 1.5 μM + 3 μM gefitinib) is 73%; in data set [1] (inactivator 1.5 μM + 10 μM gefitinib), 55%; in data set [1] (inactivator 1.5 μM + 30 μM gefitinib), 47%. In addition, in data set [2] (human, human liver cytosol), the fraction unbound at 4 h, 10 μM worked out at 0.56.
